The numbers were not newly measured in PMC5933782, “Molecular structures of cdc2-like kinases in complex with a new inhibitor chemotype” (PLoS ONE, 2018), which cites them from elsewhere.

The structures appear in SMILES notation.

Series [1] relates to CLK1. The conditions noted are these: cited from earlier work.
The subject of another series is HCT116. The conditions noted are these: colorectal cancer cell line; cited from earlier work.
Series [2] deals with DYRK1A. The conditions noted are these: cited from earlier work.
Series [3] relates to CLK1. Details: method as in PMID 28555643. The conditions noted are these: 1 μM; cited from earlier work.
Series [4] has as its system DYRK1A. Details: method as in PMID 28555643. The conditions noted are these: 1 μM; cited from earlier work.

`CN1CCN(C(=O)C(C)(C)c2ccc(C(=O)Nc3cn4cc(-c5ccncc5)ccc4n3)cc2)CC1` [T3]: the IC50 in the series with CLK1 [1] was 0.67 nM; in the series with DYRK1A [2] it was 260 nM. Besides, the GI50 with HCT116 is 130 nM.
As to `c1cc(-c2ccc3[nH]ncc3c2)ccn1` [TG693], the “inhibition of CLK1 activity” value with CLK1 [3] is 93%. In addition, the “inhibition of DYRK1A activity” value in the series with DYRK1A [4] was 84%.
